Laboratory results reported in patent publication US4684665A, “Sebosuppressive benzoic acid ester derivatives and cosmetic preparations containing them” (Henkel Kommanditgesellschaft auf Aktien, priority 1985, dated 1987).

System: accumulation of sebum
Test: Anti-seborrheic activity on the shaved back of rats (browning, second evaluation method), % sebum reduction
Format: in vivo
Details: topical, once daily on 9 of 14 days, male Wistar rats, treated side vs untreated control group; for % Sebum reduction at the indicated concentration of active substance: 0.05%: 0.05 wt. % in alcohol; for % Sebum reduction at the indicated concentration of active substance: 0.1%: 0.1 wt. % in alcohol; for % Sebum reduction at the indicated concentration of active substance: 0.02%: 0.02 wt. % in alcohol
Text: Male Wistar rats having a body weight ranging from 220 to 230 g at the beginning of the tests were used as the test animals. The accumulation of sebum in the test animals was examined by visually observing the degree of browning on the shaved back of the rats. Browning is caused by the accumulation of the brown skin surface lipid secreted by the rats. This test is based on the observation that young female rats, as well as male rats washed with a surfactant solution or with a lipid solvent or male rats systematically treated with estrogens show only a normal light, pink-colored skin after shaving, while at the same time, only comparatively very small quantities of lipids can be extracted from the shaved hairs.
In order to assess the anti-seborrheic effectiveness of the alkoxy and alkylbenzyloxy benzoic acid esters of the present invention, alcoholic solutions of test substances (B), (E), (F), (H) and (I) were each brushed onto one side of the back of 6 rats. The benzoic acid ester derivatives tested were applied in concentrations ranging from 0.02 to 0.1 wt. % in the alcohol.
The test period consisted of 14 days. The test substances were applied, once daily on 9 of the 14 days. A second group of 6 rats which were not treated was used as an additional control. At the end of the test period, the backs and sides of the animals were shaved and visually inspected. The examination was done independently by an evaluation panel composed of 6 people using double blind techniques.
A second criterion of evaluation is the intensity of the brown coloration in the shaved area. The following scale is used for this analysis:
According to this second method of evaluation, differences in the total points between the untreated control animals and the treated and untreated sides (ΔP) of the test animals respectively are calculated. Significant differences between the total point values assigned to the control animals and the values assigned to the treated side of the test animals again indicate the antiseborrheic effectiveness of a substance.
The results are presented in terms of sebum reduction percentage. The sebum reduction percentage is calculated from the point differences by determining the quotient of the difference in total points between the control group and the treated side of the test animals (ΔP) and the total number of points for the control group (Pk) and then expressing the value obtained in percent. [formula]

Row | Molecule | % Sebum reduction at the indicated concentration of active substance: 0.05% [%] | % Sebum reduction at the indicated concentration of active substance: 0.1% [%] | % Sebum reduction at the indicated concentration of active substance: 0.02% [%]
1 | CCCCCCCCCCCCOCCOc1ccc(C(=O)OCCCO)cc1 [H, 4-(2-dodecyloxy-ethoxy)-benzoic acid-3-hydroxypropyl ester] | 71 | – | –
2 | CCCCCCCCCCCCOc1ccc(C(=O)OC)cc1 [4-dodecyloxy benzoic acid methyl ester, reference compound] | 0 | 18 | –
3 | 4-isotridecyloxy-benzoic acid methylester | 83 | – | 83
4 | COC(=O)c1ccc(OCc2ccc(C(C)(C)C)cc2)cc1 [Compound E, 4-(4-tert-butylbenzyloxy)-benzoic acid methylester] | 77 | – | 10
5 | CCCCCCCCCCCCOCCOc1ccc(C(=O)OC)cc1 [F, 4-(2-dodecyloxyethoxy)-benzoic acid methylester] | 63 | – | –
6 | CCCCCCCCCCCCOc1ccc(C(=O)OCCCO)cc1 [4-dodecyloxy benzoic acid-3-hydroxypropyl ester, reference compound] | 18 | 33 | –
7 | COC(=O)c1ccc(OCCC(C)CC(C)(C)C)cc1 (stereo not drawn) [Compound B, 4-(3,5,5-trimethylhexyloxy)-benzoic acid methylester] | 36 | 76 | –
